Measurements taken from paper PMC9696579 (Nature structural & molecular biology, 2022).
Where a SMILES comes first, the peptide text is derived from it. The star is where a group is joined. 5FAM = O=C1OC2(c3ccc(O)cc3Oc3cc(O)ccc32)c2ccc(C(=O)*)cc21; PEG3 = NCCOCCOCCOCCC(=O)O

How the values were obtained:
SMO [1] = assay: Immunofluorescence of SMO and endogenous PKA-C in NIH3T3 cilia
SMO [2] = conditions: inverse agonist; cited from earlier work
human PKA-Cα = human PKA-Cα (Homo sapiens, UniProt P17612); assay: Fluorescence polarization, FAM-labeled SMO peptide binding to human PKA-Cα; conditions: human or mouse PKA-Cα
GLI = GLI transcriptional reporter assay in Smo−/− MEFs; assay type: cell-based, mouse; conditions: ShhN conditioned medium, 2 days, n = three
smo−/− zebrafish = assay: Slow muscle specification in smo−/− zebrafish embryos; assay type: in vivo, Danio rerio; conditions: mRNA injection; Prox1 / Engrailed staining; <26 hours post-fertilization
[3] = target: mouse PKA catalytic subunit (Cα) (Mus musculus, UniProt P05132); assay: In vitro PKA-C activity assay; assay type: biochemical; conditions: read-out: IC50 for PKA-C activity; recombinant SMO pCT; apparent IC50; 15–30 nM Cα, 260 μM Kemptide, 100 μM ATP, 10 mM MgCl2, 100 mM MOPS pH 7; 3 min preincubation, room temperature; two independent experiments
mouse PKA-Cα = mouse PKA-Cα (Mus musculus, UniProt P05132); assay: Surface plasmon resonance; conditions: SPR
PKA-Cα [4] = assay: BRET analysis of SMO / PKA-C interactions in HEK293 cells; assay type: cell-based, mouse; conditions: nanoluc-tagged SMO657 with YFP-tagged PKA-Cα, mean, n = three
PKA-Cα [5] = assay: BRET analysis of SMO / PKA-C interactions in IMCD3 cells; assay type: cell-based, mouse; conditions: PKA-C expressed at near-endogenous levels, n = three
PKA-Cα [6] = assay: SMO / PKA-C colocalization in cilia of IMCD3 cells; assay type: cell-based; conditions: WRR mutation, SAG21k 1 μM overnight

CC1=C2C[C@H]3[C@@H](CC=C4C[C@@H](O)CC[C@@]43C)[C@@H]2CC[C@]12O[C@@H]1C[C@H](C)CN[C@H]1[C@H]2C [cyclopamine]
SMO colocalization with endogenous PKA-C in primary cilium (SMO [1]; NIH3T3, cyclopamine 5 μM, 8 hours): did not occur
effect on SMO (accumulation in cilia, conformation) (SMO [2]): induces SMO to accumulate in cilia but traps it in an inactive conformation

CC[C@H](C)[C@H](NC(=O)[C@H](C)NC(=O)CNC(=O)[C@H](CCCNC(=N)N)NC(=O)[C@H](CCCNC(=N)N)NC(=O)[C@H](C)NC(=O)[C@@H](NC(=O)[C@H](CCSC)NC(=O)[C@H](CCCCN)NC(=O)[C@@H](NC(=O)[C@@H](NC(=O)[C@H](Cc1c[nH]cn1)NC(=O)[C@H](CCC(N)=O)NC(=O)[C@H](C)NC(=O)[C@H](Cc1c[nH]c2ccccc12)NC(=O)[C@H](C)NC(=O)[C@H](CO)NC(=O)[C@H](CO)NC(=O)[C@@H](NC(=O)[C@H](CC(=O)O)NC(=O)[C@H](C)NC(=O)[C@H](CO)NC(=O)CCOCCOCCOCCNC(=O)c1ccc2c(c1)C(=O)OC21c2ccc(O)cc2Oc2cc(O)ccc21)C(C)C)C(C)C)[C@@H](C)O)C(C)C)C(=O)N[C@@H](CC(C)C)C(=O)N1CCC[C@H]1C(=O)O ({5FAM-PEG3}-SADVSSAWAQHVTKMVARRGAILP-OH)
ATP dependence of interaction with PKA-Cα (human PKA-Cα): strongly ATP-dependent

wild-type SMO: full-length wild-type SMO construct
GLI transcriptional response (GLI): strong GLI transcriptional responses to Hh ligands
muscle specification in smo−/− zebrafish (smo−/− zebrafish): restored correct muscle specification

recombinant SMO pCT: residues 565–657 of mouse SMO, cleaved from MBP-His8-SUMO tags
IC50 [3]: 10.9 µM

SMO pCT: recombinant protein encompassing the entire 93 amino-acid SMO pCT, GST-tagged for SPR
ATP/MgCl2 dependence of PKA-C binding (mouse PKA-Cα; ATP and MgCl2 omitted, PKA-Cα […]): depended strictly on ATP and MgCl2
binding to PKA-Cα (mouse PKA-Cα; mouse PKA-Cα, ATP and MgCl2 present): bound specifically to mouse PKA-Cα

wild-type SMO657: nanoluc-tagged truncated SMO construct
BRET with PKA-C (PKA-Cα [4]): strong, specific BRET

SMO WRR: full-length SMO with WRR mutation (SADVSSAAAQHVTKMVAAAGAILPQDVSVTPVATPVPP)
interaction with PKA-C (BRET) (PKA-Cα [5]): prevented interaction between SMO and PKA-C
GLI transcriptional response (GLI): almost completely devoid of activity
colocalization with PKA-C in cilia (PKA-Cα [6]): dramatically reduced colocalization in cilia

CNC1CCC(N(Cc2cccc(-c3ccncc3)c2)C(=O)c2sc3ccccc3c2Cl)CC1 (stereo not shown) [SAG]
accumulation of SMO in cilia (SMO [1]; NIH3T3 stably expressing SMO-V5-TurboID, SAG 100 nM, anti-V5): dramatic accumulation of SMO in cilia
